Laboratory results taken from the NIST ThermoML archive (doi:10.1016/j.jct.2014.11.001).
“And” between values parts separate entries of the source, which are not always exact repeats. Identical values can stand only once.

Tests used:
[1] = Molar enthalpy of transition or fusion; settings: Crystal; DSC
[2] = for Normal melting temperature: DTA

CN(C)C(=O)c1cccnc1 [N,N-dimethylnicotinamide]
Settings	Molar enthalpy of transition or fusion [kcal/mol]
[1]	4.64

[2]
Settings	vapor or sublimation pressure [kPa]
307.16 K, Metastable liquid, Closed cell (Static) method	0.00057
308.18 K, Crystal, Closed cell (Static) method	0.00049
309.14 K, Metastable liquid, Closed cell (Static) method	0.00069
309.15 K, Crystal, Closed cell (Static) method	0.00056
310.13 K, Crystal, Closed cell (Static) method	0.00062
311.15 K, Crystal, Closed cell (Static) method	0.0007
311.16 K, Metastable liquid, Closed cell (Static) method	0.00082
312.13 K, Crystal, Closed cell (Static) method	0.00078
313.1 K, Crystal, Closed cell (Static) method	0.00088
313.1 K, Metastable liquid, Closed cell (Static) method	0.00099
314.09 K, Crystal, Closed cell (Static) method	0.00098
315.07 K, Metastable liquid, Closed cell (Static) method	0.00118
315.1 K, Crystal, Closed cell (Static) method	0.0011
317.09 K, Metastable liquid, Closed cell (Static) method	0.00142
319.04 K, Closed cell (Static) method, Liquid	0.00169
321.01 K, Closed cell (Static) method, Liquid	0.002
322.97 K, Closed cell (Static) method, Liquid	0.00238
324.98 K, Closed cell (Static) method, Liquid	0.0028
326.94 K, Closed cell (Static) method, Liquid	0.00334
328.93 K, Closed cell (Static) method, Liquid	0.00388
330.88 K, Closed cell (Static) method, Liquid	0.00459
332.9 K, Closed cell (Static) method, Liquid	0.00538
334.96 K, Closed cell (Static) method, Liquid	0.00637
336.93 K, Closed cell (Static) method, Liquid	0.00748
338.92 K, Closed cell (Static) method, Liquid	0.00861
340.89 K, Closed cell (Static) method, Liquid	0.01
342.87 K, Closed cell (Static) method, Liquid	0.01163
344.83 K, Closed cell (Static) method, Liquid	0.0135
346.82 K, Closed cell (Static) method, Liquid	0.01555
348.79 K, Closed cell (Static) method, Liquid	0.0179
350.77 K, Closed cell (Static) method, Liquid	0.02072
352.74 K, Closed cell (Static) method, Liquid	0.02375
354.72 K, Closed cell (Static) method, Liquid	0.02718
356.68 K, Closed cell (Static) method, Liquid	0.03111
358.66 K, Closed cell (Static) method, Liquid	0.03534
360.66 K, Closed cell (Static) method, Liquid	0.04054
362.63 K, Closed cell (Static) method, Liquid	0.04582
364.61 K, Closed cell (Static) method, Liquid	0.05247
366.58 K, Closed cell (Static) method, Liquid	0.05911
368.55 K, Closed cell (Static) method, Liquid	0.06722
370.52 K, Closed cell (Static) method, Liquid	0.07569

Settings	Normal melting temperature [°C]
[2], Crystal	44.2

NC(=O)c1cccnc1 [3-pyridinecarboxamide]
Settings	Molar enthalpy of transition or fusion [kcal/mol]
[1]	5.66

[2]
Settings	vapor or sublimation pressure
341.25 K, Crystal, Calculated from knudsen effusion weight loss	9.3e-05 kPa
343.28 K, Crystal, Calculated from knudsen effusion weight loss	0.000117 kPa and 0.000116 kPa
345.05 K, Crystal, Calculated from knudsen effusion weight loss	0.000142 kPa and 0.000141 kPa and 0.000144 kPa
347.23 K, Crystal, Calculated from knudsen effusion weight loss	0.000182 kPa and 0.000183 kPa and 0.000184 kPa
349.26 K, Crystal, Calculated from knudsen effusion weight loss	0.000228 kPa and 0.000226 kPa and 0.00023 kPa
351.07 K, Crystal, Calculated from knudsen effusion weight loss	0.000277 kPa and 0.000275 kPa and 0.00028 kPa
353.24 K, Crystal, Calculated from knudsen effusion weight loss	0.000356 kPa and 0.000352 kPa
355.27 K, Crystal, Calculated from knudsen effusion weight loss	0.000434 kPa and 0.00043 kPa and 0.000436 kPa
356.6 K, Crystal, Closed cell (Static) method	0.00051 kPa
357.06 K, Crystal, Calculated from knudsen effusion weight loss	0.000528 kPa and 0.000517 kPa and 0.000525 kPa
358.66 K, Crystal, Closed cell (Static) method	0.00063 kPa
359.25 K, Crystal, Calculated from knudsen effusion weight loss	0.000666 kPa and 0.000648 kPa and 0.000656 kPa
360.58 K, Crystal, Closed cell (Static) method	0.00078 kPa
361.29 K, Crystal, Calculated from knudsen effusion weight loss	0.000812 kPa and 0.000792 kPa and 0.000807 kPa
363.06 K, Crystal, Calculated from knudsen effusion weight loss	0.000975 kPa and 0.000964 kPa and 0.00097 kPa
364.49 K, Crystal, Closed cell (Static) method	0.00116 kPa
366.57 K, Crystal, Closed cell (Static) method	0.00143 kPa
368.47 K, Crystal, Closed cell (Static) method	0.00172 kPa
370.51 K, Crystal, Closed cell (Static) method	0.00211 kPa
372.43 K, Crystal, Closed cell (Static) method	0.00255 kPa
374.46 K, Crystal, Closed cell (Static) method	0.00311 kPa
376.31 K, Crystal, Closed cell (Static) method	0.00371 kPa
378.39 K, Crystal, Closed cell (Static) method	0.00451 kPa
380.33 K, Crystal, Closed cell (Static) method	0.00536 kPa
382.34 K, Crystal, Closed cell (Static) method	0.00647 kPa
384.22 K, Crystal, Closed cell (Static) method	0.00767 kPa
386.28 K, Crystal, Closed cell (Static) method	0.00925 kPa
388.17 K, Crystal, Closed cell (Static) method	0.01094 kPa
390.23 K, Crystal, Closed cell (Static) method	0.01311 kPa
392.23 K, Crystal, Closed cell (Static) method	0.01553 kPa
394.43 K, Crystal, Closed cell (Static) method	0.01868 kPa
396.07 K, Metastable liquid, Closed cell (Static) method	0.02388 kPa
396.08 K, Crystal, Closed cell (Static) method	0.02158 kPa
398.04 K, Metastable liquid, Closed cell (Static) method	0.02729 kPa
398.1 K, Crystal, Closed cell (Static) method	0.02563 kPa
400.07 K, Metastable liquid, Closed cell (Static) method	0.03101 kPa
402.04 K, Metastable liquid, Closed cell (Static) method	0.0351 kPa
404.02 K, Closed cell (Static) method, Liquid	0.03991 kPa
405.98 K, Closed cell (Static) method, Liquid	0.04492 kPa
407.93 K, Closed cell (Static) method, Liquid	0.05046 kPa
409.92 K, Closed cell (Static) method, Liquid	0.05717 kPa
411.89 K, Closed cell (Static) method, Liquid	0.06456 kPa
413.87 K, Closed cell (Static) method, Liquid	0.07284 kPa
415.82 K, Closed cell (Static) method, Liquid	0.08179 kPa
417.81 K, Closed cell (Static) method, Liquid	0.09162 kPa
419.77 K, Closed cell (Static) method, Liquid	0.103 kPa
421.72 K, Closed cell (Static) method, Liquid	0.1152 kPa
423.69 K, Closed cell (Static) method, Liquid	0.1283 kPa
425.65 K, Closed cell (Static) method, Liquid	0.1428 kPa
427.62 K, Closed cell (Static) method, Liquid	0.1598 kPa
429.58 K, Closed cell (Static) method, Liquid	0.1773 kPa
431.56 K, Closed cell (Static) method, Liquid	0.1973 kPa
433.69 K, Closed cell (Static) method, Liquid	0.2206 kPa

Settings	Normal melting temperature [°C]
[2], Crystal	128.1
